According to patent US20060148030A1, “Nuclear receptor err y 3” (FUJISAWA PHARMACEUTICAL CO., LTD, priority 2002, published 2006):

Legend:
ERRγ1 = target: T1, ERRγ1 (Homo sapiens, UniProt P62508); conditions: stated as known property; cited from earlier work
T1 sequence (P62508 1-435 isoform P62508-2): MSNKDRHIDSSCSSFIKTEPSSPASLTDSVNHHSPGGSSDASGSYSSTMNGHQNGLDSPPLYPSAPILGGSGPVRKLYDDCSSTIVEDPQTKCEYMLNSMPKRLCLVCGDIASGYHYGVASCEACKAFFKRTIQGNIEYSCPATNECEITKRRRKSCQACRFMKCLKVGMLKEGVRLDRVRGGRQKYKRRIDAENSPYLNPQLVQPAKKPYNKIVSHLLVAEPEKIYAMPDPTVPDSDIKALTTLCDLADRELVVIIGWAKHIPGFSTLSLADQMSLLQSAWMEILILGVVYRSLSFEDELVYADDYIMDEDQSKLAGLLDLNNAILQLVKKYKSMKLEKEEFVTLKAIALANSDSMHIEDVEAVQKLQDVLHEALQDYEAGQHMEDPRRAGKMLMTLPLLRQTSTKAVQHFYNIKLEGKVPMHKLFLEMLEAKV

VDR = target: T2, VDR (Rattus norvegicus, UniProt P13053); experiment: Reporter gene assay, ERRγ3 coexisted with VDR, pGVP2-VDRE in CV-1 cells; format: cell-based; conditions: 5×10^−8 M calcitriol, FIG. 23
T2 construct: expressed in transfected cells; host or cells: CV-1 (African green monkey kidney)
T2 sequence (P13053 1-423): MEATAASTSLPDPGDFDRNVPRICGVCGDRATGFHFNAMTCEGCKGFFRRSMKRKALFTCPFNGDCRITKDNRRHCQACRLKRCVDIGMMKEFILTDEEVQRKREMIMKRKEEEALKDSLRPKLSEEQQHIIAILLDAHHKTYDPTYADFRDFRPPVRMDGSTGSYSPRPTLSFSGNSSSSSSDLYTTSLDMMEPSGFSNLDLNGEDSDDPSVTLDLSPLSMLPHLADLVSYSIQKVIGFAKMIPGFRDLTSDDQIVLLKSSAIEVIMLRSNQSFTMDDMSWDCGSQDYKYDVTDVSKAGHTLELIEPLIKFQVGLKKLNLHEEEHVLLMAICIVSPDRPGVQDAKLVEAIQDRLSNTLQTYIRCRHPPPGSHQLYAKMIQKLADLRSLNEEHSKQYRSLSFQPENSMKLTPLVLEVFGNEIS
T2 sequence (P19793 1-462 partner): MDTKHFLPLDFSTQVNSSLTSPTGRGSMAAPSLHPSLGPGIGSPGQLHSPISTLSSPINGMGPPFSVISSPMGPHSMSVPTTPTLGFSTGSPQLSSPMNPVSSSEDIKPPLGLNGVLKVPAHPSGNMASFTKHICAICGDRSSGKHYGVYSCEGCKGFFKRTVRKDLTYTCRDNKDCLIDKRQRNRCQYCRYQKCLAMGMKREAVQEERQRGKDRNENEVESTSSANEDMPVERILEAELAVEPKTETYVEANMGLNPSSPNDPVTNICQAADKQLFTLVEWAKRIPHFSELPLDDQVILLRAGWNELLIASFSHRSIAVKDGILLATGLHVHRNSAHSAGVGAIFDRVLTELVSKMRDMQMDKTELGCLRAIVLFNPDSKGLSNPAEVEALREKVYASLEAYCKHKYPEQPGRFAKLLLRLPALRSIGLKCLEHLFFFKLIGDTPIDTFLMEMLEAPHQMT
Method: Transfection was performed as follows: CV-1 cells were resuspended in DMEM supplemented with 10% fetal bovine serum, 2000 U/l of penicillin G, and 100 mg/l of streptomycin to a concentration of 2×10^5 cells/2.5 ml. This was then seeded to a 6-well plate at 2.5 ml per well, and incubated for 18-24 hours in a CO2 incubator at 37° C. and 5% CO2. 1 μg of each of the expression plasmids for the transcription factors, the luciferase reporter plasmid, and another luciferase reporter plasmid used for normalization of the measured values (pRL-TK), were dissolved in Opti-MEM (Gibco BRL), to a total of 150 μl. 7 μl of the transfection reagent LipofectAMINE 2000 (Gibco BRL) was diluted in 143 μl of Opti-MEM, and this was added to the mixture drop by drop while stirring. The mixture was incubated for 20 minutes. […] Luciferase activity was measured using the Dual-Luciferase™ Reporter Assay System (Promega). […] The protocol for measurement was as follows: 50 μl of Luciferase Assay Reagent II was added to each well, stirred for 0.3 seconds, and measured for one second. 50 μl of Stop&Glo™ Reagent was then added, stirred for 0.3 seconds, and measured for one second. The measured values for firefly luciferase activity were corrected by dividing by the value for the Renilla luciferase activity, the internal control. Average values and standard errors were calculated from triplicate samples. […]

**Q.** For 4-hydroxytamoxifen [reference compound], which “inhibition of the transcriptional activation function of ERRγ1” value (ERRγ1) is on record?
**A.** inhibiting their transcriptional activation function

B1: ERRγ3: novel ERRγ isoform, nuclear receptor protein of 396 amino acids (SEQ ID NO: 2) lacking part of the DNA binding domain (protein, listed as Homo sapiens)
chain: MSNKDRHIDSSCSSFIKTEPSSPASLTDSVNHHSPGGSSDASGSYSSTMNGHQNGLDSPPLYPSAPILGGSGPVRKLYDDCSSTIVEDPQTKCEYMLNSMPKRLCLVCGDIASGYHYGVASCEACKAFFKRTIQGVRLDRVRGGRQKYKRRIDAENSPYLNPQLAQPAKKPYNKIVSHLLVAEPEKIYAMPDPTVPDSDIKALTTLCDLADRELVVIIGWAKHIPGFSTLSLADQMSLLQSAWMEILILGVVYRSLSFEDELVYADDYIMDEDQSKLAGLLDLNNAILQLVKKYKSMKLEKEEFVTLKAIALANSDSMHIEDVEAVQKLQDVLHEALQDYEAGQHMEDPRRAGKMLMTLPLLRQTSTKAVQHFYNIKLEGKVPMHKLFLEMLEAKV
**Q.** Which “modifying effect on the transcriptional stimulation activity of VDR” value (VDR) does the source give for B1 here?
**A.** did not show a significant modifying effect
